Reference: ChEMBL document CHEMBL5137044, “Expansion of the S-CN-DABO scaffold to exploit the impact on inhibitory activities against the non-nucleoside HIV-1 reverse transcriptase” (Eur J Med Chem, 2022)

Tests used:
[1] = Selectivity index, ratio of CC50 for human MT4 cells to EC50 for antiviral activity against NNRTI resistant HIV-1 infected in human MT4 cells; format: toxicity, cell-based; conditions: read-out: Ratio CC50/EC50
[2] = tested on: Human immunodeficiency virus 1; test: Antiviral activity against drug-resistant HIV-1 L100I mutant infected in human MT4 cells assessed as reduction in virus-induced cytopathic effect incubated for 5 days by MTT assay; format: functional, organism-based; conditions: Human immunodeficiency virus 1, L100I mutant, MT4, 120 h
[3] = tested on: Human immunodeficiency virus 1; test: Antiviral activity against drug-resistant HIV-1 K103 N mutant infected in human MT4 cells assessed as reduction in virus-induced cytopathic effect incubated for 5 days by MTT assay; format: functional, organism-based; conditions: Human immunodeficiency virus 1, K103 N mutant, MT4, 120 h
Cytochrome P450 2D6 = Cytochrome P450 2D6 (Homo sapiens, UniProt P10635); test: Inhibition of CYP2D6 in human liver microsomes using dextromethorphan as substrate incubated for 15 to 40 mins in presence of NADPH; format: ADME, Microsome
Cytochrome P450 2D6, sequence (P10635 whole entry): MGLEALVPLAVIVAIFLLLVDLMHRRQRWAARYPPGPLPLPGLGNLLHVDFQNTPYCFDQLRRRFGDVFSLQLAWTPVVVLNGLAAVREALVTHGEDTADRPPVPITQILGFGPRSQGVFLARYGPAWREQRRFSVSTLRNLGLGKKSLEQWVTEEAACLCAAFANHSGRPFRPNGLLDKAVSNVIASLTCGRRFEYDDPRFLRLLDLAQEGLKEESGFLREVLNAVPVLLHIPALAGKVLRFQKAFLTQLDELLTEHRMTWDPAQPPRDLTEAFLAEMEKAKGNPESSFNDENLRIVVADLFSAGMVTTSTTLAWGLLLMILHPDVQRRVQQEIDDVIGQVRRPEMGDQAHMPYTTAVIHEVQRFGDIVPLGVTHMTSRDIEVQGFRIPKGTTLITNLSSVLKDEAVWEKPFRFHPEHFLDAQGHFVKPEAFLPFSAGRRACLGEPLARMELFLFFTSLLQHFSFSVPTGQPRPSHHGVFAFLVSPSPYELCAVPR

Cytochrome P450 3A4 = Cytochrome P450 3A4 (Homo sapiens, UniProt P08684); test: Inhibition of CYP3A4T in human liver microsomes using testosterone as substrate incubated for 15 to 40 mins in presence of NADPH; format: ADME, Microsome
Cytochrome P450 3A4, sequence (P08684 whole entry): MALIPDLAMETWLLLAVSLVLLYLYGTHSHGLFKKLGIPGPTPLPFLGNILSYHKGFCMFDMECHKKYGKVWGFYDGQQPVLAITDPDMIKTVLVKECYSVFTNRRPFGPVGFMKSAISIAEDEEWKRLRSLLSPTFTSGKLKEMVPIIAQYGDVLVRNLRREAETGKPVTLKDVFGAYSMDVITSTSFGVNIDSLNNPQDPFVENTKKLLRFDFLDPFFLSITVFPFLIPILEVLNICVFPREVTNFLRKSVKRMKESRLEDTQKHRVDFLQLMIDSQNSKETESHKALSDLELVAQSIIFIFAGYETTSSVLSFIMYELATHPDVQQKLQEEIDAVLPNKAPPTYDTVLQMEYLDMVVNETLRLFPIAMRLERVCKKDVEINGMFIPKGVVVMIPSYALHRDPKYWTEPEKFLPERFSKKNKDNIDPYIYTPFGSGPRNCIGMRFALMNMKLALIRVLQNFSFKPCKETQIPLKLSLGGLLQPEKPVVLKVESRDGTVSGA

[4] = Cmax in Sprague-Dawley rat at 10 mg/kg,po measured upto 24 hrs by LC-MS/MS analysis; format: ADME, organism-based; design: dose 10 mg/kg, time < 24 hrs, route po; conditions: in vivo
[5] = AUC (0 to t) in Sprague-Dawley rat at 1 mg/kg,iv measured upto 24 hrs by LC-MS/MS analysis; format: ADME, organism-based; design: dose 1 mg/kg, time < 24 hrs, route iv; conditions: in vivo
[6] = Apparent volume of distribution in Sprague-Dawley rat at 10 mg/kg,po measured upto 24 hrs by LC-MS/MS analysis; format: ADME, organism-based; conditions: in vivo
[7] = MRT (0 to infinity) in Sprague-Dawley rat at 10 mg/kg,po measured upto 24 hrs by LC-MS/MS analysis; format: ADME, organism-based; conditions: in vivo
[8] = Oral bioavailability in Sprague-Dawley rat at 10 mg/kg measured upto 24 hrs by LC-MS/MS analysis; format: ADME, organism-based; conditions: in vivo
[9] = Acute toxicity in mouse assessed as mouse death at 1 g/Kg,IG monitored for 2 weeks; conditions: in vivo, po, 1000 mg/kg, 336 h
[10] = Acute toxicity in healthy mouse assessed as lung damage at 1 g/Kg,IG monitored for 2 weeks by HE staining based assay; format: tissue-based; conditions: in vivo, po, 1000 mg/kg, 336 h
[11] = Acute toxicity in healthy mouse assessed as kidney damage at 1 g/Kg,IG monitored for 2 weeks by HE staining based assay; format: tissue-based; conditions: in vivo, po, 1000 mg/kg, 336 h
[12] = Acute toxicity in mouse assessed as behavioral abnormalities at 1 g/Kg,IG monitored for 2 weeks; conditions: in vivo, po, 1000 mg/kg, 336 h
[13] = Fold resistance, ratio of EC50 for antiviral activity against drug-resistant HIV-1 L100I mutant infected in human MT4 cells to EC50 for antiviral activity against […] HIV-1 infected in human MT4 cells; format: functional
[14] = Fold resistance, ratio of EC50 for antiviral activity against drug-resistant HIV-1 K103 N mutant infected in human MT4 cells to EC50 for antiviral activity against […] HIV-1 infected in human MT4 cells; format: functional
[15] = Fold resistance, ratio of EC50 for antiviral activity against drug-resistant HIV-1 Y188L mutant infected in human MT4 cells to EC50 for antiviral activity against […] HIV-1 infected in human MT4 cells; format: functional

`Cc1c(C(C#N)c2c(F)cccc2F)nc(SC(C)C)[nH]c1=O` (configuration not stated) showed a selectivity ratio [1] of 6560, an EC50 [2] of 1030 nM and an EC50 [3] of 3.39 µM. The IC50 (Cytochrome P450 2D6) was > 50 µM, the IC50 (Cytochrome P450 3A4) was > 50 µM and the Cmax [4] was 15300 ng/mL. The AUC(0-t) at 24 h [5] was 8280 ng·h/mL, the Vz [6] was 475.37 mL/kg and the MRT inf [7] was 6.82 h. The F [8] was 164%, the Activity [9] was “Non-Toxic” and the Activity [10] was “Non-Toxic”. The Activity [11] was “Non-Toxic”, the Activity [12] was “Non-Toxic” and the “Ratio EC50” value [13] was 50. For the same molecule, the “Ratio EC50” value [14] was 163 and the “Ratio EC50” value [15] was 3319.
